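All cell lines were grown in 96-well plates and treated with compound for 48 hours. GI50 marks 50% less growth.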 Calls of active or inactive are those of the source. No stated cut-off is given here; in the data, active = GI50 up to about 1.1 µM and inactive = higher.
Legend:
Experiment in all cases: DTP human tumour cell line panel, 48 h
SF-295 = system: SF-295
MDA-MB-231 = system: MDA-MB-231
OVCAR-3 = system: OVCAR-3
HT-29 = system: HT-29
PC-3 = system: PC-3
KM12 = system: KM12
SN12C = system: SN12C
A549 = system: A549
SR = system: SR
MCF7 = system: MCF7
EKVX = system: EKVX
K562 = system: K562
UACC-62 = system: UACC-62
HOP-62 = system: HOP-62
NCI-H460 = system: NCI-H460
SF-539 = system: SF-539
NCI-H23 = system: NCI-H23
HCC 2998 = system: HCC 2998
MDA-MB-435 = system: MDA-MB-435

SMILES | GI50 (SF-295) | GI50 (MDA-MB-231) | GI50 (OVCAR-3) | GI50 (HT-29) | GI50 (PC-3) | GI50 (KM12) | GI50 (SN12C) | GI50 (A549) | GI50 (SR) | GI50 (MCF7) | GI50 (EKVX) | GI50 (K562) | GI50 (UACC-62) | GI50 (HOP-62) | GI50 (NCI-H460) | GI50 (SF-539) | GI50 (NCI-H23) | GI50 (HCC 2998) | GI50 (MDA-MB-435)
CC(C)(C)OC(=O)N(CCCCN(CCCNC(=O)C(F)(F)F)C(=O)OC(C)(C)C)CCCNC(=O)C(F)(F)F | > 100 µM (inactive) | > 100 µM (inactive) | 45.3 µM (inactive) | > 100 µM (inactive) | > 100 µM (inactive) | > 100 µM (inactive) | > 100 µM (inactive) | > 100 µM (inactive) | > 100 µM (inactive) | > 100 µM (inactive) | > 100 µM (inactive) | 98.9 µM (inactive) | > 100 µM (inactive) | 38.7 µM (inactive) | > 100 µM (inactive) | > 100 µM (inactive) | > 100 µM (inactive) | > 100 µM (inactive) | > 100 µM (inactive)
Nc1nc(O)c2nc3c(nc2n1)C(=O)N(c1ccc(C(=O)O)cc1)C3 | > 100 µM (inactive) | > 100 µM (inactive) |  | > 100 µM (inactive) | > 100 µM (inactive) | > 100 µM (inactive) | > 100 µM (inactive) | > 100 µM (inactive) | > 100 µM (inactive) | > 100 µM (inactive) | > 100 µM (inactive) | > 100 µM (inactive) | > 100 µM (inactive) | 29.4 µM (inactive) | > 100 µM (inactive) | > 100 µM (inactive) | > 100 µM (inactive) | > 100 µM (inactive) | > 100 µM (inactive)
CC(C)N1CC2CN(Cc3ccccc3)CC(C1)C2=O | > 100 µM (inactive) | > 100 µM (inactive) | > 100 µM (inactive) | > 100 µM (inactive) | > 100 µM (inactive) | > 100 µM (inactive) | > 100 µM (inactive) | > 100 µM (inactive) | > 100 µM (inactive) | > 100 µM (inactive) |  | > 100 µM (inactive) | > 100 µM (inactive) | > 100 µM (inactive) | > 100 µM (inactive) | > 100 µM (inactive) | > 100 µM (inactive) | > 100 µM (inactive) | > 100 µM (inactive)
NC(CC1=CCC=CC1)C(=O)O (configuration not stated) | 60.3 µM (inactive) | > 100 µM (inactive) | 51.5 µM (inactive) | 61.9 µM (inactive) | 45.7 µM (inactive) | 68.2 µM (inactive) | > 100 µM (inactive) | 74.5 µM (inactive) | > 10 µM (inactive) | 47.4 µM (inactive) | > 100 µM (inactive) | 28.9 µM (inactive) | > 100 µM (inactive) | > 100 µM (inactive) | 59.3 µM (inactive) |  | > 100 µM (inactive) | > 100 µM (inactive) | 71.8 µM (inactive)
NCCCNCCCNCCCN | > 100 µM (inactive) | > 100 µM (inactive) | > 100 µM (inactive) | > 100 µM (inactive) | > 100 µM (inactive) | > 100 µM (inactive) | > 100 µM (inactive) | > 100 µM (inactive) | 18.8 µM (inactive) | > 100 µM (inactive) | > 100 µM (inactive) | 25.2 µM (inactive) | > 100 µM (inactive) | > 100 µM (inactive) |  |  | > 100 µM (inactive) | > 100 µM (inactive) | > 100 µM (inactive)
CCOP(=O)(OCC)C(C(=O)OC)C(=O)C(=O)Nc1cccc(O)c1 (configuration not stated) | > 100 µM (inactive) | > 100 µM (inactive) | > 100 µM (inactive) | > 100 µM (inactive) | > 100 µM (inactive) | > 100 µM (inactive) | > 100 µM (inactive) | > 100 µM (inactive) | > 100 µM (inactive) | > 100 µM (inactive) | > 100 µM (inactive) |  | > 100 µM (inactive) | > 100 µM (inactive) | > 100 µM (inactive) | > 100 µM (inactive) | > 100 µM (inactive) | > 100 µM (inactive) | > 100 µM (inactive)
COc1cc2ccc1OCc1cccc(n1)COc1ccc(cc1OC)/C=N\CCNCC/N=C\2 | 41.7 µM (inactive) | 35.2 µM (inactive) | > 100 µM (inactive) | > 100 µM (inactive) | > 100 µM (inactive) |  | > 100 µM (inactive) | > 100 µM (inactive) | > 100 µM (inactive) | > 100 µM (inactive) | > 100 µM (inactive) | > 100 µM (inactive) |  | > 100 µM (inactive) | > 100 µM (inactive) | > 100 µM (inactive) | > 100 µM (inactive) | > 100 µM (inactive) | > 100 µM (inactive)
Cc1cc2c(cc1-c1cc3c(cc1C)C(C(C)C)=C(O)C(=O)/C3=C\Nc1c(C)n(C)n(-c3ccccc3)c1=O)/C(=C/Nc1c(C)n(C)n(-c3ccccc3)c1=O)C(=O)C(O)=C2C(C)C | > 100 µM (inactive) | 42.1 µM (inactive) | 50.2 µM (inactive) | > 100 µM (inactive) | 66.2 µM (inactive) | 71.6 µM (inactive) | > 100 µM (inactive) | 40.1 µM (inactive) | 39.2 µM (inactive) | 38.8 µM (inactive) | 76.9 µM (inactive) | > 100 µM (inactive) | > 100 µM (inactive) | 70.1 µM (inactive) | 54.1 µM (inactive) | 48.1 µM (inactive) | > 100 µM (inactive) |  | 79.3 µM (inactive)
COc1cc(C2SCC(=O)N2c2ccc(-c3ccc(-n4c(-c5ccccc5)nc5ccccc5c4=O)cc3)cc2)cc(OC)c1OC (configuration not stated) |  | 15.6 µM (inactive) | 18.5 µM (inactive) | 33.3 µM (inactive) | 11.4 µM (inactive) | 12.6 µM (inactive) | 81.5 µM (inactive) | 24.6 µM (inactive) | 23.1 µM (inactive) | 26.2 µM (inactive) | 37.5 µM (inactive) | 13.6 µM (inactive) | 21.2 µM (inactive) | 23.3 µM (inactive) | 27.5 µM (inactive) | 30.3 µM (inactive) | 73.1 µM (inactive) | 55.2 µM (inactive) | 21.8 µM (inactive)
O=C(N/N=C/c1ccccc1O)c1ccccc1Nc1ccccc1C(=O)N/N=C/c1ccccc1O | 0.975 µM (active) | 99.3 µM (inactive) | 0.0546 µM (active) | 0.518 µM (active) | 13.4 µM (inactive) | 1.38 µM (inactive) |  | 1.62 µM (inactive) | 0.566 µM (active) | 0.583 µM (active) | 0.398 µM (active) | 1 µM (active) | 1.05 µM (active) | 0.432 µM (active) | 0.371 µM (active) | 2.19 µM (inactive) | 1.84 µM (inactive) | > 100 µM (inactive) | 2.41 µM (inactive)
CN(C)/C=N\c1nncc2[nH]nnc12 | > 100 µM (inactive) | > 100 µM (inactive) | > 100 µM (inactive) | > 100 µM (inactive) | > 100 µM (inactive) | > 100 µM (inactive) | > 100 µM (inactive) | > 100 µM (inactive) | > 100 µM (inactive) | > 100 µM (inactive) | > 100 µM (inactive) | > 100 µM (inactive) | > 100 µM (inactive) | > 100 µM (inactive) | > 100 µM (inactive) | > 100 µM (inactive) | > 100 µM (inactive) |  | > 100 µM (inactive)
CC1OC(OC2C(O)COC(OC3C(C)OC(OC4C(OC(=O)[C@]56CCC(C)(C)C[C@@H]5C5=CCC7[C@@]8(C)C[C@H](O)[C@H](OC9OC(CO)C(O)C(O)C9O)[C@@](C)(CO)[C@@H]8CC[C@@]7(C)[C@]5(C)CC6)OCC(O)C4O)C(O)C3OC3OCC(O)C(O)C3O)C2O)C(O)C(O)C1O (some centres not stated) | 20.7 µM (inactive) | 14.7 µM (inactive) | 17.8 µM (inactive) |  | 14 µM (inactive) | 25.7 µM (inactive) | 17.5 µM (inactive) | 14 µM (inactive) | 17.9 µM (inactive) | 19.8 µM (inactive) | 10.7 µM (inactive) | 42.9 µM (inactive) | 22.3 µM (inactive) | 17.8 µM (inactive) | 20.1 µM (inactive) | 18.1 µM (inactive) | 20.8 µM (inactive) | 16.6 µM (inactive) | 21.8 µM (inactive)
C[Si](C)(C)OC1c2[nH]c3ccccc3c2CN2C(=O)CCC12 (configuration not stated) |  | > 100 µM (inactive) | > 100 µM (inactive) | > 100 µM (inactive) | > 100 µM (inactive) | > 100 µM (inactive) | > 100 µM (inactive) | > 100 µM (inactive) | > 100 µM (inactive) | > 100 µM (inactive) | > 100 µM (inactive) | > 100 µM (inactive) | > 100 µM (inactive) | > 100 µM (inactive) | > 100 µM (inactive) | > 100 µM (inactive) |  | > 100 µM (inactive) | > 100 µM (inactive)
O=C1CC(c2cccc(Cl)c2)n2cccc21 (configuration not stated) | > 100 µM (inactive) | > 100 µM (inactive) | > 100 µM (inactive) | > 100 µM (inactive) | 49.5 µM (inactive) | 77.3 µM (inactive) | > 100 µM (inactive) | > 100 µM (inactive) | 90.2 µM (inactive) | > 100 µM (inactive) |  | 61.4 µM (inactive) | > 100 µM (inactive) | > 100 µM (inactive) |  | > 100 µM (inactive) | > 100 µM (inactive) | 88.7 µM (inactive) | > 100 µM (inactive)
CC[N+](C)(CC)Cc1ccccc1[N+](=O)[O-] | > 100 µM (inactive) | 72.8 µM (inactive) | 26.9 µM (inactive) | 36.1 µM (inactive) | 44.8 µM (inactive) | > 100 µM (inactive) | > 100 µM (inactive) | > 100 µM (inactive) | > 100 µM (inactive) | > 100 µM (inactive) | 32.3 µM (inactive) | > 100 µM (inactive) | > 100 µM (inactive) | 48.4 µM (inactive) | > 100 µM (inactive) | > 100 µM (inactive) | > 100 µM (inactive) |  | > 100 µM (inactive)
